Measured values reported in PubChem BioAssay (NCI).
“And” between values parts separate entries of the source, which are not always exact repeats. Equal values may be shown once.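 The compound was tested at five concentrations on cells cultured in 96-well plates, with a 48-hour exposure period. GI50 marks 50% less growth. TGI is the concentration that stops growth completely.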

Legend:
Experiment in all cases: NCI anticancer screen, dose series, 48 h
MCF7 breast = system: MCF7 breast
HCT-116 colon = system: HCT-116 colon
MDA-MB-231 breast = system: MDA-MB-231 breast
EKVX NSCLC = system: EKVX NSCLC
MALME-3M melanoma = system: MALME-3M melanoma
SF-295 CNS = system: SF-295 CNS
K-562 leukemia = system: K-562 leukemia
BT-549 breast = system: BT-549 breast
U251 CNS = system: U251 CNS
CCRF-CEM leukemia = system: CCRF-CEM leukemia

SMILES	GI50 (MCF7 breast) [µM]	GI50 (HCT-116 colon) [µM]	TGI (HCT-116 colon) [µM]	GI50 (MDA-MB-231 breast)	TGI (MDA-MB-231 breast) [µM]	GI50 (EKVX NSCLC)	TGI (EKVX NSCLC) [µM]	GI50 (MALME-3M melanoma) [µM]	TGI (MALME-3M melanoma) [µM]	GI50 (SF-295 CNS) [µM]	TGI (K-562 leukemia) [µM]	GI50 (BT-549 breast)	TGI (BT-549 breast)	TGI (U251 CNS) [µM]	TGI (CCRF-CEM leukemia) [µM]	TGI (SF-295 CNS) [µM]	TGI (MCF7 breast) [µM]	GI50 (U251 CNS) [µM]	GI50 (CCRF-CEM leukemia) [µM]	GI50 (K-562 leukemia) [µM]
CCc1c2c(nc3cc4c(cc13)OCO4)-c1cc3c(c(=O)n1C2)COC(=O)[C@]3(O)CC	< 0.001	1.31	> 100	0.0726 µM and 0.167 µM	> 100	4.31 µM and 1.8 µM	> 100	0.289	> 100	< 0.001	> 100	0.0654 µM and 0.0367 µM	5.29 µM and 0.782 µM							
O=c1[nH]c2ccccc2cc1C(Cl)=C(Cl)Cl			> 100				> 100		> 100		> 100			> 100	> 100	> 100				
CCCCCCCCCCCCCC(=S)NCCCC[C@H](NC(=O)OCc1ccccc1)C(=O)Nc1ccccc1	4.4	3.77	> 100	5.53 µM	> 100			7.41	> 100	3.4	> 100	39.6 µM	> 100 µM	> 100	> 100	72.1	> 100	3.21	4.04	4.21
CCOC(=O)CC1=Nc2ccccc2SC1			> 100				> 100		> 100					> 100		> 100				
CCOc1ccc(S(=O)(=O)/N=C2\C=C(SCC(=O)O)C(=O)c3ccccc32)cc1	1.64	2.67	10.3	2.84 µM	12.2	3.29 µM	11.3	2.13	3.69	13	10.6	4.66 µM	15 µM	9.23		30.2	3.68	3.1		3.35
COc1cc2c(c3c1C=CCO3)C(=O)c1ccccc1C2=O			> 100				> 100		> 100		> 100			> 100	66.4	> 100				
C=CCSC[C@H](NC(=O)COc1ccccc1)C(=O)NC(C(=O)OCc1ccc([N+](=O)[O-])cc1)=C(C)C			> 100				> 100		> 100		> 100			> 100	> 100	> 100				
C=CC1=CSNN1			> 100				> 100		> 100		> 100			> 100	> 100	> 100				
COc1c(C2CC(=O)Nc3c2cnn3Cc2ccco2)cc2c(c1OC)OCO2 (centres undefined)	0.367	0.457	> 100	1.67 µM	> 26.4			0.441	> 100	0.573	> 100	1.1 µM	> 100 µM	> 25.8	> 100	> 30.5	> 100	0.499	0.597	0.434
COc1cc2c3c(cccc3c1)C(=O)N(CCN1CCCC1)C2=O	1.71	0.753	> 100	2.46 µM	10.2			1.88	4.1	2.46	> 100	2.95 µM	8.33 µM	9.59	> 100	6.44	20.4	2.75	2.86	3.62
Cn1cc(NC(=O)c2cc(NC(=O)CCCCCCCCCCC(=O)Nc3cc(C(=O)Nc4cc(C(=O)NCCC(=N)N)n(C)c4)n(C)c3)cn2C)cc1C(=O)NCCC(=N)N			> 100				90.2				> 100			> 100	> 100	> 100				
CSC1=NC=CCN1C			> 100				> 100		> 100		> 100			> 100	> 100	> 100				
CC(=O)c1ccc(Nc2cc(-c3ccccc3)nc3c(O)cccc23)cc1		5.79	90.2	24 µM	55.7	28.7 µM	> 100	19.6	68.3	37.2	> 100	28.7 µM	> 100 µM	> 100	34.6	> 100		9.44	5.05	4.73
O=C(Nc1nc2ccccc2s1)OCC(F)(F)F	> 100	> 100	> 100	> 100 µM	> 100			> 100	> 100	> 100	> 100	> 100 µM	> 100 µM	> 100	> 100	> 100	> 100	> 100	> 100	> 100
CCCCCCCCCCCCCCCC(=O)NCC(COP(=O)([O-])OCC[N+](C)(C)C)OCC (centres undefined)			23.9				36.5		30.8					14.4		18.6				
C1COCCN1.C1COCCN1.N.N.[Cl-].[Pt+2]		> 100	> 100			> 100 µM	> 100	> 100	> 100	> 100				> 100		> 100		> 100		
COc1ccc(/C=C/C=C(/C#N)C(N)=S)cc1	29.5	15.6	31	26.9 µM	87.4	77.3 µM	> 100	26.9	99.4	31	> 100	30.1 µM	> 100 µM	> 100		> 100	> 100	28.5		29.9
CCCCCCCCCCCCC(=O)OC(c1cnco1)c1nc(C(O)CC(O)C(O)C(C)O)co1 (centres undefined)		0.459	> 100			6.56 µM	> 100	3.61	> 100	1.52	> 100			> 62.8	> 61.5	98.3		0.72	0.838	0.426
